Test results as given in patent US11083777B2, “Hemichannel extracellular-domain specific agents for treating ischemia-reperfusion injury” (The Feinstein Institutes for Medical Research, priority 2015, dated 2021).
Entries after “also recorded” stand apart in the source; their conditions may differ.

Columns and labels:
[1] = biological target: Panx1 hemichannels (Homo sapiens, UniProt Q96RD7); conditions: cited from earlier work
[2] = biological target: Cx43 gap junctions (Homo sapiens, UniProt P17302); conditions: cited from earlier work
Sequence of Cx43 gap junctions (P17302 whole entry): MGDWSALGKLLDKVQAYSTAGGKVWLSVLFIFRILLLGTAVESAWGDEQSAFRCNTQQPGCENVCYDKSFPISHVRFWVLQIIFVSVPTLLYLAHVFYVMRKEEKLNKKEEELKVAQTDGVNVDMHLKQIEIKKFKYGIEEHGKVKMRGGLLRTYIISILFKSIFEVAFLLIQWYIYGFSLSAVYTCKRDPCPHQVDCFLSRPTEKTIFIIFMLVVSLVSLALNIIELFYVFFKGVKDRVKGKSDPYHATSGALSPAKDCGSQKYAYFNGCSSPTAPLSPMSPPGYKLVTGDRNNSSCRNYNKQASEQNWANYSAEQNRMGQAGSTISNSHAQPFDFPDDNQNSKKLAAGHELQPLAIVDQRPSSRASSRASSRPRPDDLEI

[3] = tested on: PKR; assay: LPS-induced PKR expression and phosphorylation (Western blotting); type: cell-based, murine; conditions: crude LPS, 16 h, primary macrophages
[4] = tested on: Primary peritoneal macrophages; assay: LPS-induced HMGB1 secretion in primary peritoneal macrophages (Western blotting); type: cell-based, murine; conditions: crude LPS, 16 h, extracellular HMGB1
Experimental: FIG. 2A-2C. […] AU, arbitrary units. *, P<0.05 versus “+LPS alone.”
Primary murine macrophages and human monocytes were employed to investigate the mechanisms underlying the regulation of HMGB1 secretion by various inflammatory stimuli. Primary peritoneal macrophages were isolated from Balb/C mice (male, 7-8 weeks, 20-25 grams) at 2-3 days after intraperitoneal injection of 2 ml thioglycollate broth (4%, Difco, Detroit, Mich.) as previously described (23,78). Human peripheral blood mononuclear cells (HuPBMCs) were isolated from human blood purchased from the New York (Long Island) Blood Bank (Melville, N.Y.) by density gradient centrifugation through Ficoll (Ficoll-Paque PLUS, Pharmacia, Piscataway, N.J.) as previously described (23,78,79). At 80-90% confluence, macrophage/monocyte cultures will be stimulated with divergent stimuli: ultrapure and crude LPS, CIRP 14, SAA (PeproTech, Cat. No. 300-13) at different concentrations and for various time periods (0, 6, 12, and 18 h). The expression levels of Cx43 or Panx1 hemichannel proteins in macrophage/monocyte cultures are determined by Western blotting or immunocytochemistry techniques as previously described (21,23,80).

[5] = biological target: Panx1 hemichannel (Homo sapiens, UniProt Q96RD7); conditions: cited from earlier work
Sequence of Panx1 hemichannel (Q96RD7 whole entry): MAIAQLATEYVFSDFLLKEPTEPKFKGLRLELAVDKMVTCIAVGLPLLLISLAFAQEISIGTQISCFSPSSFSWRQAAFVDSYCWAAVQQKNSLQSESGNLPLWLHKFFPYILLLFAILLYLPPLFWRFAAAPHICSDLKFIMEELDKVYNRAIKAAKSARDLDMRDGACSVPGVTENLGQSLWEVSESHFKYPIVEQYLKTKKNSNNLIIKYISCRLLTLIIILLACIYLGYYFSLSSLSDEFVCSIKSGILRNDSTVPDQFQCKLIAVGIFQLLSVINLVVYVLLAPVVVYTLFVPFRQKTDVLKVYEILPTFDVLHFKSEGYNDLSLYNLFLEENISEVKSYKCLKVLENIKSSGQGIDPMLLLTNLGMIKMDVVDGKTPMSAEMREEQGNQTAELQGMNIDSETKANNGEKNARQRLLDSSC

[6] = tested on: Primary peritoneal macrophages; assay: LPS-induced NO production in primary peritoneal macrophages (Griess reaction); type: cell-based, murine; conditions: crude LPS, 16 h
[7] = tested on: Primary peritoneal macrophages; conditions: reference 49; cited from earlier work
[8] = tested on: macrophage hemichannel activities; assay: Lucifer Yellow uptake in LPS-stimulated macrophages; type: cell-based
[9] = in vivo; cited from earlier work
[10] = biological target: Cx43 hemichannel (Homo sapiens, UniProt P17302); conditions: ATP release or dye uptake; cited from earlier work
Sequence of Cx43 hemichannel (P17302 whole entry): as the sequence (P17302 whole entry) above

[11] = tested on: connexin 43-gated hemichannel activities; assay: Lucifer Yellow dye uptake in LPS-stimulated RAW 264.7 cells; type: cell-based; conditions: LPS 16 h, LY 1 mg/ml 15 min
Experimental: FIG. 8. […] The Lucifer Yellow dye uptake was used to measure the connexin 43-gated hemichannel activities. […] Subsequently, cell cultures were incubated with Lucifer Yellow (LY, 1 mg/ml) for 15 min, and fixed with 2% paraformaldehyde following three extensive washes with 1× PBS. The number of cells with diffused fluorescent signals was counted under a fluorescence microscope. The cells containing punctuate fluorescent signals were excluded, as the punctuate signals likely resulted from phagocytosis (rather than passive diffusion through Cx43 hemichannels) of the LY dye.
The Lucifer Yellow dye uptake was used to measure the connexin 43-gated hemichannel activities. […] Subsequently, cell cultures were incubated with Lucifer Yellow (LY, 1 mg/ml) for 15 min, and fixed with 2% paraformaldehyde following three extensive washes with 1×PBS. The number of cells with diffused fluorescent signals was counted under a fluorescence microscope. The cells containing punctuate fluorescent signals were excluded, as the punctuate signals likely resulted from phagocytosis (rather than passive diffusion through Cx43 hemichannels) of the LY dye. […] Animal survival was assessed for up to two weeks, and the Kaplan-Meier method was used to compare the differences in mortality rates between groups. […]

[12] = tested on: C57BL/6 mice; assay: Hepatic ischemia/reperfusion injury, serum ALT and AST; type: in vivo; conditions: 10.0 mg/kg BW via internal jugular vein at beginning of reperfusion; 24 h
Experimental: FIG. 10. Intravenous administration of Cx43 peptide antagonist conferred protection against hepatic ischemia/reperfusion (I/R) injury. Male C57BL/6 mice (20-25 g) were subjected to hepatic ischemia/reperfusion by temporally clamping the hepatic artery and portal vein for 60 minutes, which typically produced ischemia in 70% of the liver. At the beginning of the reperfusion, 0.2 ml saline, P5 (ENVCYD; 10.0 mg/kg BW) or P5A (ENVSYD (SEQ ID NO:14); 10.0 mg/kg BW) was injected via the internal jugular vein. At 24 h after the onset of ischemia, animals were euthanized to harvest blood to measure serum levels of hepatic injury markers such as alanine aminotransferase (ALT) and aspartate aminotransferase (AST) using commercial kits.
Intravenous administration of Cx43 peptide antagonist conferred protection against hepatic ischemia/reperfusion (I/R) injury. Male C57BL/6 mice (20-25 g) were subjected to hepatic ischemia/reperfusion by temporally clamping the hepatic artery and portal vein for 60 minutes, which typically produced ischemia in 70% of the liver. At the beginning of the reperfusion, 0.2 ml saline, P5 (ENVCYD, 10.0 mg/kg BW) or P5A (ENVSYD (SEQ ID NO:14), 10.0 mg/kg) was injected via the internal jugular vein. […]

Sequence of Panx1 hemichannels (Q96RD7 whole entry): as the sequence (Q96RD7 whole entry) above

10Panx: Panx1-specific mimetic inhibitory peptide, residues 74 to 83 of SEQ ID NO:16 (WRQAAFVDSY; HOMO SAPIENS)
P2X7R-induced Panx1 hemichannel activation [1]: selectively attenuate

CC1(C)[C@@H](OC(=O)CCC(=O)O)CC[C@]2(C)[C@H]3C(=O)C=C4[C@@H]5C[C@@](C)(C(=O)O)CC[C@]5(C)CC[C@@]4(C)[C@]3(C)CC[C@@H]12 [CBX, carbenoxolone]
EC50 [1]: 1000 to 4000 nM | EC50 [2]: 50 to 100 µM | LPS-induced elevation of PKR expression and phosphorylation [3]: dose-dependently abrogated; also recorded: significantly attenuated | LPS-induced HMGB1 secretion [4]: effectively suppressed; also recorded: dose-dependently abrogated; also recorded: remarkably inhibited | Panx1 hemichannel-mediated ATP release ([5]; CBX 10 μM, hypoxia, sheer stress, low oxygen tension): effectively inhibited | ATP release from apoptotic cells ([5]; CBX >100 μM): uniformly attenuated | LPS (endotoxin)-induced NO production [6]: effectively suppressed; also recorded: remarkably inhibited | concentrations of CBX used to abrogate LPS-induced HMGB1 secretion in macrophages [7]: 5 to 10 µM | number of LY-positive cells ([8]; prolonged LPS stimulation, quiescent approximately 2%, LPS alone ~16%): 6-8%

CC1(C)[C@@H](O[C@H]2O[C@H](C(=O)O)[C@@H](O)[C@H](O)[C@H]2O[C@@H]2O[C@H](C(=O)O)[C@@H](O)[C@H](O)[C@H]2O)CC[C@]2(C)[C@H]3C(=O)C=C4[C@@H]5C[C@@](C)(C(=O)O)CC[C@]5(C)CC[C@@]4(C)[C@]3(C)CC[C@@H]12 [GZA, glycyrrhizic acid]
benefit in animal models of hepatitis, hepatic ischemia/reperfusion, toxin-induced liver injury, endotoxemia, colitis [9]: proven beneficial

Nc1ncnc2c1ncn2[C@@H](C=O)O[C@@H](C=O)COP(=O)(O)OP(=O)(O)OP(=O)(O)O [oATP]
LPS-induced elevation of PKR expression and phosphorylation [3]: significantly attenuated | LPS-induced HMGB1 secretion [4]: similarly inhibited | LPS-induced LY-uptake ([8]; data not shown): similarly inhibited

CCCN(CCC)S(=O)(=O)c1ccc(C(=O)O)cc1 [probenecid]
specificity for Panx1 (over Cx43) [1]: more specific inhibitor

Gap19: mimetic peptide KQIEIKKFK (SEQ ID NO:19), intracellular loop of Cx43 (HOMO SAPIENS)
Cx43 hemichannel activities [10]: specifically inhibits | Panx1 channel activity [1]: without affecting | Cx43 gap junction communication [2]: without affecting

P5: peptide ENVCYD (SEQ ID NO:1), Cx43 peptide antagonist from extracellular loop 1 (listed as Homo Sapiens)
bacterial endotoxin-induced Lucifer Yellow dye uptake [11]: significantly inhibited | protection against hepatic I/R injury (serum ALT, AST) [12]: significant protection
